In ChEMBL document CHEMBL1201862, “PubChem BioAssay data set” (2004):
Each block holds one compound with its values, some of them ahead of it. Activity calls are given as the source filed them.

How the values were obtained:
[1] = target: Heat shock protein HSP 90-alpha (Homo sapiens, UniProt P07900); assay type: functional, organism-based
[2] = target: Melanocortin receptor 4 (Homo sapiens, UniProt P32245); assay: MC4R antagonist potency on cAMP, dose response, cell-based, TR-FRET, biased antagonists (AID 602298); assay type: functional;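 also: antagonist potency against agonist-stimulated cAMP production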
[3] = target: T1, Short transient receptor potential channel 4 (Mus musculus, UniProt Q9QUQ5); assay: TRPC4 positive allosteric modulators, dose response, cell-based, HEK293 TRPC4/mu-opioid, Fluo-4 calcium, EC20 DAMGO (AID 434941); assay type: functional
T1 sequence (Q9QUQ5 whole entry): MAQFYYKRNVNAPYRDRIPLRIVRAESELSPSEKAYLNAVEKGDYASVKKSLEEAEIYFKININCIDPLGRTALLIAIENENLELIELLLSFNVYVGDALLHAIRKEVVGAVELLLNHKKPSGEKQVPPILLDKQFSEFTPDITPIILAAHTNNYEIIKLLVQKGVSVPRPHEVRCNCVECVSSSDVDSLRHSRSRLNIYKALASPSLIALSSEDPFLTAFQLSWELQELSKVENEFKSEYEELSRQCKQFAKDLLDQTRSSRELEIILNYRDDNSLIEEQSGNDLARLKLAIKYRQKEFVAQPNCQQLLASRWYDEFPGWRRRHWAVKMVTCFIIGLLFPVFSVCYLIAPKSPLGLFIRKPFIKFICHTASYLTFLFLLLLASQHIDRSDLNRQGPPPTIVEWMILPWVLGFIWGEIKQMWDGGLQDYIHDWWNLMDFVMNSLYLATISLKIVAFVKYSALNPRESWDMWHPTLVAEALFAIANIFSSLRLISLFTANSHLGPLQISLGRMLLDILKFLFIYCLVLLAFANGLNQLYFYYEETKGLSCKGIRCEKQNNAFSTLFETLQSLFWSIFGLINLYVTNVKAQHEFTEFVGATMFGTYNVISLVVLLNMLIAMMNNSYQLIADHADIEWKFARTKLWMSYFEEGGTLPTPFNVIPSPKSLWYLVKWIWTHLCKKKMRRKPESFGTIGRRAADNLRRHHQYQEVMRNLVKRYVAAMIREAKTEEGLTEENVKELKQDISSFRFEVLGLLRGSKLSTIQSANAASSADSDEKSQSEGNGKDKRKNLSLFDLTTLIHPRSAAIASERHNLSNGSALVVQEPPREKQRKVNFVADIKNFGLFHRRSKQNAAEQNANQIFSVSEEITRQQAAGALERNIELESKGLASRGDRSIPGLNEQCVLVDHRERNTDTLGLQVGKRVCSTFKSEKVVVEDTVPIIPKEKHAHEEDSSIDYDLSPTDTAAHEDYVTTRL

[4] = Luminescence Cell-Based Dose Retest to Confirm Inhibitors of Cancer Stem Cells. [Related pubchem assays (depositor defined):AID2717, AID2721]; assay type: functional; details: Homo sapiens
[5] = nonselective inhibitors of cellular cAMP signaling, dose response, counter-screen for MC4R biased antagonist project, cell-based, TR-FRET cAMP detection (AID 602305); assay type: functional;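 also: U2OS cells stimulated with forskolin near its EC80 as the cAMP inducer; potency is for inhibition of forskolin-stimulated cAMP signaling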
[6] = test system: HEK293; assay: cells; assay type: functional, cell-based; details: Homo sapiens
[7] = test system: HEK293; assay: NOD2 signaling inhibitors in MDP-stimulated cells, cell-based, uHTS, luminescence (AID 2001); assay type: functional; details: Homo sapiens
[8] = test system: HEK293; assay: NOD1 signaling inhibitors, primary screen, cell-based, luminescence, uHTS (AID 1578); assay type: functional; details: Homo sapiens
[9] = test system: HEK293; assay: cells; assay type: functional, cell-based; details: Homo sapiens; remark: listed apart in the source
[10] = target: Nucleotide-binding oligomerization domain-containing protein 2 (Homo sapiens, UniProt Q9HC29); assay: NOD2 signaling inhibitors, cell-based, luminescence, uHTS, HEK293 (AID 1566); assay type: functional
[11] = target: T2, Kappa-type opioid receptor (Homo sapiens, UniProt P41145); assay: SAR analysis of Antagonists of the Kappa Opioid Receptor (KOR) using an Image-Based Assay - Set 3. [Related pubchem assays (depositor defined):AID1777, AID1785]; assay type: functional
[12] = target: Delta-type opioid receptor (Homo sapiens, UniProt P41143); assay: SAR Analysis of Antagonists of the DOR Receptor using an Image-Based Assay - Set 3. [Related pubchem assays (depositor defined):AID1777, AID1785]; assay type: functional;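 also: U2OS cells expressing DOR1 and beta-arrestin GFP stimulated with 100 nM SNC80; imaging of GFP-tagged beta-arrestin moving into spots after receptor activation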
[13] = target: T2, Kappa-type opioid receptor; assay: SAR analysis of small molecule antagonists of the kappa opioid receptor via a luminescent beta-arrestin assay - Set 3. [Related pubchem assays (depositor defined):AID1777, AID1778, AID1785, AID1786, AID1966, AID2133, AID2136, AID2285, AID2495]; assay type: functional
[14] = target: Mu-type opioid receptor (Homo sapiens, UniProt P35372); assay: SAR Analysis of Antagonists of the MOR Receptor using an Image-Based Assay - Set 3. [Related pubchem assays (depositor defined):AID1777, AID1785, AID1786, AID1966, AID2133, AID2136, AID2284, AID2285, AID2420]; assay type: functional
[15] = target: T2, Kappa-type opioid receptor; assay: SAR analysis of small molecule antagonists of the kappa opioid receptor via a luminescent beta-arrestin assay - Set 4. [Related pubchem assays (depositor defined):AID1777, AID1778, AID1785, AID1786, AID1966, AID2133, AID2136, AID2285]; assay type: functional
[16] = target: T2, Kappa-type opioid receptor; assay: SAR analysis of small molecule antagonists of the kappa opioid receptor via a luminescent beta-arrestin assay - Set 6. [Related pubchem assays (depositor defined):AID1777, AID1778, AID1785, AID1786, AID1966, AID2133, AID2136, AID2285]; assay type: functional
[17] = target: T2, Kappa-type opioid receptor; assay: SAR analysis of Antagonists of the Kappa Opioid Receptor (KOR) using an Image-Based Assay - Set 4. [Related pubchem assays (depositor defined):AID1777, AID1785]; assay type: functional
[18] = target: Protein phosphatase methylesterase 1 (Homo sapiens, UniProt Q9Y570); assay: PME-1 inhibitors by competitive ABPP, late-stage follow-up, gel-based ABPP, IC50, set 1 (AID 463130); assay type: functional
[19] = target: T3, Cannabinoid receptor 1 (Homo sapiens, UniProt P21554); assay: SAR analysis of agonists of the Cannabinoid Receptor 1 using an Image-Based Assay - Set 3. [Related pubchem assays (depositor defined):AID1961, AID1965]; assay type: functional
[20] = target: T4, G-protein coupled receptor 35 (Homo sapiens, UniProt Q9HC97); assay: SAR analysis of Agonists of the GPR35 Receptor using an Image-Based Assay - Set 3. [Related pubchem assays (depositor defined):AID1961, AID1965]; assay type: functional
[21] = target: T4, G-protein coupled receptor 35; assay: SAR analysis of Antagonists of the GPR35 Receptor using an Image-Based Assay - Set 4. [Related pubchem assays (depositor defined):[…]]; assay type: functional
[22] = target: T5, Cannabinoid receptor 2 (Homo sapiens, UniProt P34972); assay: SAR analysis of agonists of the Cannabinoid Receptor 2 using an Image-Based Assay - Set 2. [Related pubchem assays (depositor defined):AID1961, AID1965]; assay type: functional
[23] = target: T3, Cannabinoid receptor 1; assay: SAR analysis of antagonists of the Cannabinoid Receptor 1 using an Image-Based Assay - Set 3. [Related pubchem assays (depositor defined):AID1961, AID1965]; assay type: functional
[24] = target: T5, Cannabinoid receptor 2; assay: SAR analysis of antagonists of the Cannabinoid Receptor 2 using an Image-Based Assay - Set 2. [Related pubchem assays (depositor defined):AID1961, AID1965]; assay type: functional
[25] = target: G-protein coupled receptor 55 (Homo sapiens, UniProt Q9Y2T6); assay: SAR analysis of selective Agonists of GPR55 using an Image-Based Assay - Set 2. [Related pubchem assays (depositor defined):AID1961, AID1965]; assay type: functional
[26] = target: Hexokinase (Trypanosoma brucei, UniProt Q38C41); assay: Confirmation assay for inhibitors of Trypanosoma brucei hexokinase 1-Analogue-first series. [Related pubchem assays (depositor defined):AID1430, AID1632, AID2516, AID2560, AID2579, AID2600, AID449725, AID492951]; assay type: functional
[27] = target: T6, Mucolipin-3 (Homo sapiens, UniProt Q8TDD5); assay: Fluorescence counterscreen assay for […] agonists: dose response cell-based high-throughput screening assay to identify agonists of the transient receptor potential channel ML3 (TRPML3). [Related pubchem assays: 1424, 1448 ]; assay type: functional
T6 sequence (Q8TDD5 whole entry): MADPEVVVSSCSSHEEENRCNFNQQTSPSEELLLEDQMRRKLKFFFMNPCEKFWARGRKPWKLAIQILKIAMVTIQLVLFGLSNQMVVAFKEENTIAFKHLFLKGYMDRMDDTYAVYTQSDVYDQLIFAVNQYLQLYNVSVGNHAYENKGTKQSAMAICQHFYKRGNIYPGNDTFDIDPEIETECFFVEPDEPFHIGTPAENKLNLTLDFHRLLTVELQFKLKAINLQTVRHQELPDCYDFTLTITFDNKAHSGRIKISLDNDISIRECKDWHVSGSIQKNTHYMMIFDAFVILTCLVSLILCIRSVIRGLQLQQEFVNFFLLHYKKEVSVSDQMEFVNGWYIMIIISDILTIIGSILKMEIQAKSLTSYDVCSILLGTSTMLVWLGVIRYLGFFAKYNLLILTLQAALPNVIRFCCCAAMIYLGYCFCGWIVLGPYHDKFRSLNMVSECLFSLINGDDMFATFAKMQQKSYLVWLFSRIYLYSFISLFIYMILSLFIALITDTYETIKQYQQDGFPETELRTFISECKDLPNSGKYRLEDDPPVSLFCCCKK

[28] = target: Ion channel NompC (Danio rerio, UniProt Q7T1G6); assay: Dose response cell-based high-throughput screening assay for agonists of the transient receptor potential channel N1 (TRPN1). [Related pubchem assays (depositor defined):AID1424, AID1448]; assay type: functional
[29] = target: T7, Coagulation factor XII (Homo sapiens, UniProt P00748); assay: FXIIa inhibitor potency, concentration-response, biochemical (AID 716); assay type: functional
T7 sequence (P00748 whole entry): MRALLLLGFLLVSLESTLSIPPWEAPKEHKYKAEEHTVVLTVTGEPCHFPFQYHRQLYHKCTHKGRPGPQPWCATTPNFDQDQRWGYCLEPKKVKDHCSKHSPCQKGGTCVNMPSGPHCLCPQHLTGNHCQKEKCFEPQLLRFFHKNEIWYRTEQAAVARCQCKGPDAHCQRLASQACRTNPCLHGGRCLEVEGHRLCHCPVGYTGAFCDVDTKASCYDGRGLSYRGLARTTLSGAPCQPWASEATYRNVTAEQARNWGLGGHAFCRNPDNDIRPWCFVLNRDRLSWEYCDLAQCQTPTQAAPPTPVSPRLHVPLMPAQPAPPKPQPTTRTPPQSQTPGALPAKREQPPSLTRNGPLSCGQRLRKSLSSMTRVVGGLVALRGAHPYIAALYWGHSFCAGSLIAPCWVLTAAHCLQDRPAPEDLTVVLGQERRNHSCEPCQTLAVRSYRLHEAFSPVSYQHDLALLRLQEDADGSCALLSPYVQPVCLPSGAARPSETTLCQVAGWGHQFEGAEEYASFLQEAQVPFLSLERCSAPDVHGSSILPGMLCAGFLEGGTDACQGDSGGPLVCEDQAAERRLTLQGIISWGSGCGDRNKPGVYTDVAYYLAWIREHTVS

[30] = target: DNA damage-inducible transcript 3 protein (Mus musculus, UniProt P35639); assay type: functional, Cricetulus griseus
[31] = target: X-box-binding protein 1 (Homo sapiens, UniProt P17861); assay type: functional, Cricetulus griseus;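 also: confirmatory dose-response counter-screen serving a CHOP assay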

T2 sequence (P41145 whole entry): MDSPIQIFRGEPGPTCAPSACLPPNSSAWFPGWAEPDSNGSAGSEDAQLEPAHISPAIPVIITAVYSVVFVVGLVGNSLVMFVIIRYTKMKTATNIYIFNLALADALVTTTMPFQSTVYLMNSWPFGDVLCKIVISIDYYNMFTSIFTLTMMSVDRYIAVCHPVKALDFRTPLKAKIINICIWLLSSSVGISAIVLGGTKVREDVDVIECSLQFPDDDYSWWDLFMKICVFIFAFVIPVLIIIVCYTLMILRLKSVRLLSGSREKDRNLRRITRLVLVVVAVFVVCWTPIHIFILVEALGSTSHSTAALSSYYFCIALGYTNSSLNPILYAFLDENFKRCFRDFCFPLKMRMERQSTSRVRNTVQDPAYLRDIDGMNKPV
T5 sequence (P34972 whole entry): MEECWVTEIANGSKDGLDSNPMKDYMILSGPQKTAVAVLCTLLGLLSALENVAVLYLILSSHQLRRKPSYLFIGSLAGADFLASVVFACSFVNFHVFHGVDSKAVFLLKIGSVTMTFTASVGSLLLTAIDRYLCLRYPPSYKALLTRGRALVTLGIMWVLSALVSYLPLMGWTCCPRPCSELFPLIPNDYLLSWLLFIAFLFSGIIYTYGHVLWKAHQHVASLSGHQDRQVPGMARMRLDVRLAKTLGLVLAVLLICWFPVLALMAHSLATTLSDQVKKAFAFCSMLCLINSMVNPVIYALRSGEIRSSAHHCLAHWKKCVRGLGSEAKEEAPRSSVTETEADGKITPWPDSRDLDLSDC
T3 sequence (P21554 whole entry): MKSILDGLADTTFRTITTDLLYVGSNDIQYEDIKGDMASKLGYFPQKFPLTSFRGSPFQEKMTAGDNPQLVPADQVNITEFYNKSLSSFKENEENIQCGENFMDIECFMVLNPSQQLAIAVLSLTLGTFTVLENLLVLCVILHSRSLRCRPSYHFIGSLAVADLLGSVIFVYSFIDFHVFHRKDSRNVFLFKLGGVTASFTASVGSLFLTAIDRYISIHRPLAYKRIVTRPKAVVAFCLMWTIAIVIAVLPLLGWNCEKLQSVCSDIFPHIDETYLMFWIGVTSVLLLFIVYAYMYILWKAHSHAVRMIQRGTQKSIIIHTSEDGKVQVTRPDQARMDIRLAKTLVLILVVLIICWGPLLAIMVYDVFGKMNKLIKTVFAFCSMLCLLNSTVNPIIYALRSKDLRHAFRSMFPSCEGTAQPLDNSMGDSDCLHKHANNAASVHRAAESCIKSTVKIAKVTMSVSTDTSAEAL
Chain of Mu-type opioid receptor (P35372 whole entry): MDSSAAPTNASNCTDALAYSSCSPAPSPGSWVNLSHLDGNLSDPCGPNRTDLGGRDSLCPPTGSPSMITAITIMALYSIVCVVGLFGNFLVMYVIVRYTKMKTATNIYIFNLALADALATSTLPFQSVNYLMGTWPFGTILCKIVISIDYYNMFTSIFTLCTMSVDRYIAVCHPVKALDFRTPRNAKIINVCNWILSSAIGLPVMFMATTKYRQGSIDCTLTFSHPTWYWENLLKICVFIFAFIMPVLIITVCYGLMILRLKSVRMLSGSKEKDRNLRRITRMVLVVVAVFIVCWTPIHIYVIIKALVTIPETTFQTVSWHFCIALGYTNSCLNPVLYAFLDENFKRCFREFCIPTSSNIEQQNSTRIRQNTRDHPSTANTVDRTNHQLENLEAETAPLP
Chain of Delta-type opioid receptor (P41143 whole entry): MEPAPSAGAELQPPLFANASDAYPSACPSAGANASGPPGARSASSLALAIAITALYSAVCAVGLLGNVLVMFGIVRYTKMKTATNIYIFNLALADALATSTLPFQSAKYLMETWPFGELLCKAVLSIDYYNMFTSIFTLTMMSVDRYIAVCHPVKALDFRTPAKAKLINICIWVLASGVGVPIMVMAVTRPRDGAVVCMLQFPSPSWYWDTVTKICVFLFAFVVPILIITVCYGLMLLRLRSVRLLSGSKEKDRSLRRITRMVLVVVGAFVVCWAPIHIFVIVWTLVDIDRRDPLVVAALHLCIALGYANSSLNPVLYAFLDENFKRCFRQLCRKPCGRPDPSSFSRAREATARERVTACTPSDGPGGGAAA
T4 sequence (Q9HC97 whole entry): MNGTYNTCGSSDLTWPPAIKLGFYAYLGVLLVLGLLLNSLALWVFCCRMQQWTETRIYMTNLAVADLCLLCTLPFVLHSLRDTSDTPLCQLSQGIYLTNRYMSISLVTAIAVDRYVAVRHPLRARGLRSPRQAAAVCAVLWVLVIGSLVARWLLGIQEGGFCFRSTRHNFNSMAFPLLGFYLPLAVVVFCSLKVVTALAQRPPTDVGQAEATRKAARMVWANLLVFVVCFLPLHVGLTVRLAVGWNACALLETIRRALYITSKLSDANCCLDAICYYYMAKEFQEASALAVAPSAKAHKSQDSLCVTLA
Chain of Hexokinase (Q38C41 whole entry): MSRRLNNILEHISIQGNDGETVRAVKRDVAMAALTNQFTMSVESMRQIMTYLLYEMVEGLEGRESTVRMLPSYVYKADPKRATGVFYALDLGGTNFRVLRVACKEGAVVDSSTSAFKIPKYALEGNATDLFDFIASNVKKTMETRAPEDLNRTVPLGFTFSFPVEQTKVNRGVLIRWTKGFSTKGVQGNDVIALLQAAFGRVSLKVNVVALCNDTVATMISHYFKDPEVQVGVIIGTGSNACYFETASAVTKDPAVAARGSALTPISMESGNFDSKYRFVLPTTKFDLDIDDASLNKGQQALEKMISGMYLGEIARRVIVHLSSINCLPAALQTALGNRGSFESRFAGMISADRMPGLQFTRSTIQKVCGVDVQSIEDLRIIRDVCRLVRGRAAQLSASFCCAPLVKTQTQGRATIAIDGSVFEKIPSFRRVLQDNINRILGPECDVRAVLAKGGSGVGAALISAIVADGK
Chain of Nucleotide-binding oligomerization domain-containing protein 2 (Q9HC29 whole entry, the tested form may be a part): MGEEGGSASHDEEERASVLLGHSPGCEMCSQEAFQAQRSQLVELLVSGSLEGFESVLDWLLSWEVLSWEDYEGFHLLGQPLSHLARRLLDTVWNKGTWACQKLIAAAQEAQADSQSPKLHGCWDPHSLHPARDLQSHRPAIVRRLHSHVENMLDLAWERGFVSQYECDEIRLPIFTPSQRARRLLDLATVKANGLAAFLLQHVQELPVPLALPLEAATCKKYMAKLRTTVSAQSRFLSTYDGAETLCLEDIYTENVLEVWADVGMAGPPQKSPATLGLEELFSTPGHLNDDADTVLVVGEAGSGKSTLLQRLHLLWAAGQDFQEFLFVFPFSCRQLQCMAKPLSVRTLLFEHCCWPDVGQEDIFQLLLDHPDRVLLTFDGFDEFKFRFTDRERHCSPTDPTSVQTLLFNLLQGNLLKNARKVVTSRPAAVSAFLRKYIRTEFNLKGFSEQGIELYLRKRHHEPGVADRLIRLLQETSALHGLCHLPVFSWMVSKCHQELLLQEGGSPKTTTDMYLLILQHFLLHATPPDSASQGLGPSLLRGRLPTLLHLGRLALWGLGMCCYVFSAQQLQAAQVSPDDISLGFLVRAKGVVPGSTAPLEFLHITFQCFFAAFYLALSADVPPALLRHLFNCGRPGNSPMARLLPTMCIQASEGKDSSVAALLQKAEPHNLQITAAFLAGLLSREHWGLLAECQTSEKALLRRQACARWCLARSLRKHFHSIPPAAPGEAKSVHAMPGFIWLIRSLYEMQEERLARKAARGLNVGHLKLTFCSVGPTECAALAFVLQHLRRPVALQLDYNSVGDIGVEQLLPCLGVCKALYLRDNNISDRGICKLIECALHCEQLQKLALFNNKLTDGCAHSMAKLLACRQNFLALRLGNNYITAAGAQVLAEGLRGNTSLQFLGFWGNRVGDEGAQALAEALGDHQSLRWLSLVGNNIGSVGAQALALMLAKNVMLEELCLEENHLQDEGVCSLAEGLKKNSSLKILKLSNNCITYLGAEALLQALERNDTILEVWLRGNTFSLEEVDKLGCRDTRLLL
Chain of Melanocortin receptor 4 (P32245 whole entry): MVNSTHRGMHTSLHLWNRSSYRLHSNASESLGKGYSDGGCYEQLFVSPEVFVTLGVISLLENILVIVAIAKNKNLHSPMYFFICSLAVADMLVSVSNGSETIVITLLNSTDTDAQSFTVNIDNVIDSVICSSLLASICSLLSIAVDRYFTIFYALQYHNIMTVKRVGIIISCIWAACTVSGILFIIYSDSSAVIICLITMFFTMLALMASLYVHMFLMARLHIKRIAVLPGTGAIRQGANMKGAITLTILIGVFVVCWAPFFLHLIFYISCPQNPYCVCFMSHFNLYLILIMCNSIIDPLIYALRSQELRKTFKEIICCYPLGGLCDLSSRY
Chain of Protein phosphatase methylesterase 1 (Q9Y570 whole entry): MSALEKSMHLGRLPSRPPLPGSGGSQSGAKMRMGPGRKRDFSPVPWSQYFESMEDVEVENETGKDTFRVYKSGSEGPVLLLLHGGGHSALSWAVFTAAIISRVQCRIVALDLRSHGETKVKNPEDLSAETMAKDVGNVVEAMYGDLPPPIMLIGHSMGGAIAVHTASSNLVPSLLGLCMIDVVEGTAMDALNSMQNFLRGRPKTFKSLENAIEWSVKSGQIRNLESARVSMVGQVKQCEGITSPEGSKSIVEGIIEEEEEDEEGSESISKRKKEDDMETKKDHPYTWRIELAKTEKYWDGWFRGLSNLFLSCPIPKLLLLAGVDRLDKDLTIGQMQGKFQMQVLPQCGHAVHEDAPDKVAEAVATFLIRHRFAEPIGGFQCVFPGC
Chain of G-protein coupled receptor 55 (Q9Y2T6 whole entry): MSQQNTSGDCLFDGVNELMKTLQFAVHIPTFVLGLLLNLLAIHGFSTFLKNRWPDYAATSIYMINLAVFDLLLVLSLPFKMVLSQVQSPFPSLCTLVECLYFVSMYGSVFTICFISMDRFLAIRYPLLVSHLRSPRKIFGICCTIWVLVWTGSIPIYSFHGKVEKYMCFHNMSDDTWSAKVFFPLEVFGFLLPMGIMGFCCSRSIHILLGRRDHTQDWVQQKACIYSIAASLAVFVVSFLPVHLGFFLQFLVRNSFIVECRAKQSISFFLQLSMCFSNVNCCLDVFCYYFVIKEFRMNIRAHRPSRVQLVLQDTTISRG

SMILES: CC1CCN(c2nc(Cl)nc(Nc3ccc([N+](=O)[O-])cc3)n2)CC1
AC50 [1]: 17.6 µM (active)
IC50 [2]: > 64.5 µM (inactive)
EC50 [3]: 3.35 µM (active)
AC50 [4]: 2.99 µM (active)
IC50 [5]: > 64.5 µM (inactive)

SMILES: Cc1c(/C=N/NC(=O)c2ccccc2O)c2ccccn2c1C(=O)c1ccc(F)cc1
IC50 [6]: 11.5 µM (active)
IC50 [7]: 6.49 µM (active)
EC50 [8]: 10.3 µM (active)
IC50 [9]: 10.9 µM (active)
EC50 [10]: 6.46 µM (active)

SMILES: Cc1ccc(Cl)cc1N1CCN(CCNC(=O)Cn2c(=O)c3cccn3c3cccnc32)CC1
IC50 [11]: > 32 µM (inactive)
IC50 [12]: > 32 µM (inactive)
IC50 [13]: > 20 µM (inactive)
IC50 [14]: 3.98 µM (active)

SMILES: COC(=O)N1C(=O)[C@](c2ccsc2)(C(C)C)N1C(=O)OC
IC50 [18]: 10.7 µM (inactive)

SMILES: CCOC(=O)c1ccncc1NC(=O)c1ccc(OC)cc1
IC50 [26]: > 25 µM (inactive)

The next lines start with results.

IC50 [12]: > 32 µM (inactive)
IC50 [15]: 0.558 µM (active)
IC50 [16]: 0.71 µM (active)
IC50 [17]: 0.137 µM (active)
IC50 [14]: 3.31 µM (active)
SMILES: Cc1ccc(S(=O)(=O)NCc2ccc(C(=O)NCCN(Cc3ccccc3)C3CCCC3)cc2)cc1

EC50 [19]: > 32 µM (inactive)
EC50 [20]: > 32 µM (inactive)
IC50 [21]: > 32 µM (inactive)
EC50 [22]: > 32 µM (inactive)
IC50 [23]: 9.36 µM (active)
IC50 [24]: > 32 µM (inactive)
EC50 [25]: > 32 µM (inactive)
SMILES: CCN(CC)S(=O)(=O)c1ccc(N2CCCCC2)c(C(=O)N2CCN(c3ccccc3)CC2)c1

EC50 [27]: > 29.9 µM (not active)
EC50 [28]: > 29.9 µM (inactive)
SMILES: O=C(Nc1ccccc1)Nc1ccc2snnc2c1

IC50 [29]: > 50 µM (inactive)
SMILES: COC(=O)c1ccccc1NC(=O)N1CCN(C(=O)c2ccco2)CC1

Absolute IC50 (XBP1) [31]: 10 µM
SMILES: O=C(Nc1ccccc1O)c1c(O)nc2c(c1O)CCCC2
Absolute IC50 (CHOP) [30]: 10 µM
